ChEMBL document CHEMBL1153923, “Carbonic anhydrase inhibitors. Inhibition of human erythrocyte isozymes I and II with a series of antioxidant phenols” (Bioorg Med Chem, 2009)

Key:
Carbonic anhydrase 1 = Carbonic anhydrase 1 (Homo sapiens, UniProt P00915); test: Inhibition of human erythrocyte CA1 esterase activity using 4-nitrophenyl acetate substrate
Carbonic anhydrase 2 = Carbonic anhydrase 2 (Homo sapiens, UniProt P00918)
Description: Inhibition of human erythrocyte CA2 esterase activity using 4-nitrophenyl acetate substrate

Carbonic anhydrase 1, sequence (P00915 whole entry): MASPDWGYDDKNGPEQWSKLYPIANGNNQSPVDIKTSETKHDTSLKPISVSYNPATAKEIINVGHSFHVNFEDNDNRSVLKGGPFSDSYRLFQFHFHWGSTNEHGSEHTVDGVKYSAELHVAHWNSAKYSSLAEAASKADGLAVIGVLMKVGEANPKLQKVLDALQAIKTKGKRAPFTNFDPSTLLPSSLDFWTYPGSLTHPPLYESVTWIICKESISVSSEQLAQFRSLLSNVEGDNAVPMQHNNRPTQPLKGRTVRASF

| Compound | Ki (Carbonic anhydrase 1) [µM] | Ki (Carbonic anhydrase 2) [µM] |
| --- | --- | --- |
| Cc1cccc(C)c1O | 198 | 113 |
| COc1c(O)cccc1C=O | 55.6 | – |
| COc1cc(C(C)(C)C)c(O)c(C(C)(C)C)c1 | 63.7 | – |
| Cc1cc(C(C)(C)C)c(O)c(C(C)(C)C)c1 [BUTYLATED HYDROXYTOLUENE] | 245 | 0.63 |
| CC(C)c1cccc(C(C)C)c1O [PROPOFOL] | 98.9 | 19.5 |

More lines, in order of falling Ki (Carbonic anhydrase 1), values ahead:

| Ki (Carbonic anhydrase 1) [µM] | Ki (Carbonic anhydrase 2) [µM] | Compound |
| --- | --- | --- |
| 275 | – | CC(C)(C)c1cccc(C(C)(C)C)c1O |
| 92.8 | 4.05 | Cc1cc(-c2cc(C)c(O)c(C)c2)cc(C)c1O |
| 60.2 | 2.94 | COc1ccccc1O [GUAIACOL] |
| 37.9 | – | CC(C)c1cc(-c2cc(C(C)C)c(O)c(C(C)C)c2)cc(C(C)C)c1O |
| 37.5 | – | CC(C)(C)c1cc(-c2cc(C(C)(C)C)c(O)c(C(C)(C)C)c2)cc(C(C)(C)C)c1O |
